From ChEMBL document CHEMBL3872240, “Simple N,N-dimethyl phenylsulfonamides show potent anticonvulsant effect in two standard epilepsy models” (Bioorg Med Chem Lett, 2017) come the findings set out here.

A word on the ED50: it is the dose that gives a 50% effect, or the effect in half of the subjects.

Data set [1] concerns Mus musculus. The experiment in a line: Neurotoxicity in Carworth Farm1 mouse assessed as muscle relaxation up to 100 mg/kg, ip. Format: toxicity, organism-based. The conditions noted are these: in vivo.
For data set [2], the system named is Mus musculus. Put plainly: Neurotoxicity in Carworth Farm1 mouse assessed as somnolence up to 100 mg/kg, ip. Format: toxicity, organism-based. The conditions noted are these: in vivo.
The subject of data set [3] is Mus musculus. Put plainly: Anticonvulsant activity in Carworth Farm1 mouse assessed as protection against subcutaneous pentylenetetrazole-induced seizures at 100 mg/kg, ip after 30 mins. Format: functional, organism-based.
In data set [4] the test system is Mus musculus. The experiment in a line: Anticonvulsant activity in ip dosed Carworth Farm1 mouse assessed as protection against subcutaneous pentylenetetrazole-induced seizures after 30 mins. Format: functional. The settings on record: Carworth Farm1, 0.5 h.
For data set [5], the system named is Mus musculus. The experiment in a line: Neurotoxicity in Carworth Farm1 mouse assessed as sedation up to 100 mg/kg, ip. The settings on record: in vivo. Format: toxicity, organism-based.
In data set [6] the test system is Mus musculus. The experiment in a line: Anticonvulsant activity in ip dosed Carworth Farm1 mouse assessed as protection against maximal electroshock-induced seizures administered 30 mins prior to 60-Hz current induction. Format: functional. (In general: The maximal electroshock test induces tonic seizures with an electrical stimulus.)
Data set [7] relates to Mus musculus. Put plainly: Anticonvulsant activity in Carworth Farm1 mouse assessed as protection against maximal electroshock-induced seizures at 50 mg/kg, ip administered 30 mins prior to 60-Hz current induction. Format: functional, organism-based.
For data set [8], the system named is Mus musculus. Put plainly: Anticonvulsant activity in Carworth Farm1 mouse assessed as protection against maximal electroshock-induced seizures at 25 mg/kg, ip administered 30 mins prior to 60-Hz current induction. Format: functional, organism-based.
Data set [9] relates to Mus musculus. Put plainly: Anticonvulsant activity in Carworth Farm1 mouse assessed as protection against subcutaneous pentylenetetrazole-induced seizures at 400 mg/kg, ip after 30 mins. Format: functional, organism-based.
Data set [10] can be described thus: Metabolic stability in rat liver microsomes assessed as amount of parent compound remaining after 30 mins. Format: ADME. The conditions noted are these: read-out: Stability. (Microsomes from liver hold many membrane-bound enzymes, among them those of drug oxidation.)
Data set [11] relates to Mus musculus. Put plainly: Anticonvulsant activity in Carworth Farm1 mouse assessed as protection against maximal electroshock-induced seizures at 100 mg/kg, ip administered 30 mins prior to 60-Hz current induction. Format: functional, organism-based.
Data set [12] deals with Mus musculus. The experiment in a line: Anticonvulsant activity in Carworth Farm1 mouse assessed as protection against maximal electroshock-induced seizures at 100 to 400 mg/kg, ip administered 30 mins prior to 60-Hz current induction. Format: functional, organism-based.
Data set [13] deals with Mus musculus. The experiment in a line: Anticonvulsant activity in Carworth Farm1 mouse assessed as protection against maximal electroshock-induced seizures at 400 mg/kg, ip administered 30 mins prior to 60-Hz current induction. Format: functional, organism-based.
Data set [14] deals with Mus musculus. Put plainly: Anticonvulsant activity in Carworth Farm1 mouse assessed as protection against maximal electroshock-induced seizures at 50 to 100 mg/kg, ip administered 30 mins prior to 60-Hz current induction. Format: functional, organism-based.

Activity calls are given as the source filed them. The calls are words filed in the database; no cut-off is given here.

`CN(C)S(=O)(=O)c1cccc(Cl)c1`: the Activity entry in data set [1], in data set [2] and in data set [5] was “Non-Toxic” throughout. Besides, the outcome in data set [3], in data set [7], in [8], in data set [9] and in data set [11] was Active. In addition, the ED50 is 34 mg/kg in [4] and 12 mg/kg in data set [6]. Also, in data set [10], the remaining at 0.5 h came out at 95%.

For the molecule `CNS(=O)(=O)Cc1cccc(Cl)c1`, the Activity result in data set [1], in data set [2] and in data set [5] was “Non-Toxic” throughout.

As for `Cc1cccc(S(=O)(=O)N(C)C)c1`, the Activity entry in [1], in data set [2] and in data set [5] was “Non-Toxic” in each case.

Turning to `O=S(=O)(c1cccc(Cl)c1)N1CCCC1`, the Activity entry in data set [1], in data set [2] and in [5] was “Non-Toxic” throughout.

For the molecule `CC1(C)O[C@@H]2[C@@H](CO[C@@]3(COS(N)(=O)=O)OC(C)(C)O[C@@H]23)O1` [TOPIRAMATE], the 50% effective dose (ED50) is greater than 800 mg/kg in data set [4] and 33 mg/kg in data set [6].

For `CN(C)S(=O)(=O)c1cccc([N+](=O)[O-])c1`, the Activity result in [1], in data set [2] and in data set [5] was “Non-Toxic” each time. In addition, in [11], the result was Active.

Turning to `CN(C)S(=O)(=O)c1cccc(C#N)c1`, the Activity entry in data set [1], in data set [2] and in data set [5] was “Non-Toxic” in each case. Further, the outcome in [7] and in [11] was Active.

For `CN(C)S(=O)(=O)c1ccccc1Cl`, the Activity entry in data set [1], in data set [2] and in data set [5] was “Non-Toxic” each time. Besides, the result in data set [12], in data set [7], in [9], in data set [13] and in data set [11] was Active.

Turning to `CN(C)S(=O)(=O)c1ccc(Cl)cc1`, the Activity result in [1], in data set [2] and in data set [5] was “Non-Toxic” in each case. The result in data set [7], in data set [8], in [9] and in data set [11] was Active.

On to `CN(C)S(=O)(=O)c1ccc(Cl)c(Cl)c1`, for which the Activity result in data set [1], in data set [2] and in [5] was “Non-Toxic” each time. Besides, in [11], the outcome was Active.

For `CCN(CC)S(=O)(=O)c1cccc(Cl)c1`, the Activity result in [1], in data set [2] and in data set [5] was “Non-Toxic” each time. Besides, the result in data set [7], in data set [9] and in data set [11] was Active.

In the case of `CN(CCO)S(=O)(=O)c1cccc(Cl)c1`, the Activity result in data set [1], in [2] and in [5] was “Non-Toxic” in each case.

In the case of `CN(C)S(=O)(=O)c1cc(Cl)ccc1Cl`, the Activity entry in data set [1], in data set [2] and in data set [5] was “Non-Toxic” in each case.

For `CN(C)S(=O)(=O)c1cccc(Br)c1`, the Activity result in [1], in [2] and in [5] was “Non-Toxic” throughout. In addition, the outcome in [7] and in data set [11] was Active.

Turning to `CNS(=O)(=O)c1cccc(Cl)c1`, the Activity entry in data set [1], in data set [2] and in data set [5] was “Non-Toxic” in each case. In addition, the outcome in [7], in data set [8], in data set [9] and in [11] was Active.

Regarding `CN(C)S(=O)(=O)c1ccccc1`, the Activity result in [1], in [2] and in data set [5] was “Non-Toxic” in each case. Besides, in data set [11], the outcome was Active.

Consider `CN(C)S(=O)(=O)c1cccc(C(F)(F)F)c1`, for which the Activity entry in data set [1], in [2] and in [5] was “Non-Toxic” in each case. For the same molecule, the outcome in data set [3] and in [11] was Active.

Regarding `CN(C)S(=O)(=O)c1cccc(OC(F)(F)F)c1`, the Activity result in data set [1], in data set [2] and in data set [5] was “Non-Toxic” each time. For the same molecule, the outcome in data set [11] was Active.

As for `CN(C)S(=O)(=O)c1cccc(Oc2ccccc2)c1`, the Activity entry in data set [1], in [2] and in data set [5] was “Non-Toxic” in each case.

Consider `COc1cccc(S(=O)(=O)N(C)C)c1`, for which the Activity result in [1], in data set [2] and in data set [5] was “Non-Toxic” in each case.

For the molecule `CCCN(C)S(=O)(=O)c1cccc(Cl)c1`, the Activity result in data set [1], in [2] and in data set [5] was “Non-Toxic” in each case.

For the molecule `CN(C)S(=O)(=O)c1cccc(N)c1`, the Activity entry in data set [1], in data set [2] and in data set [5] was “Non-Toxic” in each case.

`CN(C)S(=O)(=O)c1cccc(F)c1`: the Activity entry in [1], in data set [2] and in data set [5] was “Non-Toxic” throughout. Besides, the outcome in data set [3], in data set [7], in data set [8] and in [11] was Active.

For the molecule `CCNC(=O)C1=C(Cl)c2ccccc2S(=O)(=O)N1C`, in [14], the outcome was Active.

Regarding `NS(=O)(=O)Cc1noc2ccccc12` [ZONISAMIDE], the ED50 in [4] is greater than 500 mg/kg; in [6], 20 mg/kg.

`NS(=O)(=O)c1cccc(Cl)c1`: the Activity entry in data set [1], in [2] and in [5] was “Non-Toxic” in each case. In addition, the result in data set [7], in data set [8] and in [11] was Active.

Consider `CN(C)S(=O)(=O)c1cc(Cl)cc(Cl)c1`, for which the Activity result in data set [1], in data set [2] and in [5] was “Non-Toxic” throughout. The outcome in [11] was Active.
